The results in this text go back to patent US7368578B2, “Five-membered heterocyclic compounds” (Takeda Pharmaceutical Company Limited, priority 2002, dated 2008).

For orientation: melting point means the temperature, or range, at which the solid turns liquid.

As to `COc1cc(COc2nn(-c3ccccc3)cc2/C=C/C#N)ccc1OCc1nc(-c2ccco2)oc1C` [Example 95, (2E)-3-{3-[(4-{[2-(2-furyl)-5-methyl-1,3-oxazol-4-yl]methoxy}-3-methoxybenzyl)oxy]-1-phenyl-1H-pyrazol-4-yl}-2-propenenitrile], the melting point was 177 to 178 °C. In the case of `COc1cc(COc2nn(-c3ccccc3)cc2C=C(C#N)C#N)ccc1OCc1nc(-c2ccco2)oc1C` [Example 96, ({3-[(4-{[2-(2-furyl)-5-methyl-1,3-oxazol-4-yl]methoxy}-3-methoxybenzyl)oxy]-1-phenyl-1H-pyrazol-4-yl)methylene) malononitrile] it was 190 to 191 °C; in that of `COc1cc(COc2nn(-c3ccccc3)cc2/C=C/C(=O)N2CCOCC2)ccc1OCc1nc(-c2ccco2)oc1C` [Example 98, 4-((2E)-3-{3-[(4-{[2-(2-furyl)-5-methyl-1,3-oxazol-4-yl]methoxy}-3-methoxybenzyl)oxy]-1-phenyl-1H-pyrazol-4-yl}-2-propenoyl)morpholine], 180 to 181 °C.

As to `COc1cc(COc2nn(-c3ccccc3)cc2/C=C/C2=NCCO2)ccc1OCc1nc(-c2ccco2)oc1C` [Example 99, 4-({4-[({4-[(E)-2-(4,5-dihydro-1,3-oxazol-2-yl)ethenyl]-1-phenyl-1H-pyrazol-3-yl}oxy)methyl]-2-methoxyphenoxy}methyl)-2-(2-furyl)-5-methyl-1,3-oxazole], the melting point is 162 to 163 °C. Compound `COCc1cn(-c2ccccc2)nc1OCc1ccc(OCc2nc(-c3ccco3)oc2C)c(OC)c1` [Example 101, 2-(2-furyl)-4-{[2-methoxy-4-({[4-(methoxymethyl)-1-phenyl-1H-pyrazol-3-yl]oxy}methyl)phenoxy]methyl}-5-methyl-1,3-oxazole] registered a melting point of 121 to 122 °C.

Turning to `CNCc1cn(-c2ccccc2)nc1OCc1ccc(OCc2nc(-c3ccco3)oc2C)c(OC)c1` [Example 102, N-({3-[(4-{[2-(2-furyl)-5-methyl-1,3-oxazol-4-yl]methoxy}-3-methoxybenzyl)oxy]-1-phenyl-1H-pyrazol-4-yl}methyl)-N-methylamine], the melting point is 103 to 104 °C. Under `COc1cc(COc2nn(-c3ccccc3)cc2CCO)ccc1OCc1nc(-c2ccco2)oc1C` [Example 104, 2-{3-[(4-{[2-(2-furyl)-5-methyl-1,3-oxazol-4-yl]methoxy}-3-methoxybenzyl)oxy]-1-phenyl-1H-pyrazol-4-yl}ethanol] stands 123 to 124 °C; under `COc1cc(COc2nn(-c3ccccc3)cc2/C=C2\SC(=O)N(C)C2=O)ccc1OCc1nc(-c2ccco2)oc1C` [Example 105, (5Z)-5-({3-[(4-{[2-(2-furyl)-5-methyl-1,3-oxazol-4-yl]methoxy}-3-methoxybenzyl)oxy]-1-phenyl-1H-pyrazol-4-yl}methylene)-3-methyl-1,3-thiazolidine-2,4-dione], 215 to 216 °C. The compound `COc1cc(COc2nn(-c3ccccc3)cc2CC2SC(=O)N(C)C2=O)ccc1OCc1nc(-c2ccco2)oc1C` (stereo not drawn) [Example 106, 5-({3-[(4-{[2-(2-furyl)-5-methyl-1,3-oxazol-4-yl]methoxy}-3-methoxybenzyl)oxy]-1-phenyl-1H-pyrazol-4-yl}methyl)-3-methyl-1,3-thiazolidine-2,4-dione] had a melting point of 111 to 112 °C. Take `COc1cc(COc2nn(-c3ccccc3)cc2-c2cnco2)ccc1OCc1nc(-c2ccco2)oc1C` [Example 107, 2-(2-furyl)-4-{[2-methoxy-4-({[4-(1,3-oxazol-5-yl)-1-phenyl-1H-pyrazol-3-yl]oxy}methyl)phenoxy]methyl}-5-methyl-1,3-oxazole]: the melting point lay in the range of 153 to 154 °C.

In turn, `COc1cc(COc2nn(-c3ccccc3)cc2/C=C/CO)ccc1OCc1nc(-c2ccco2)oc1C` [Example 108, (2E)-3-{3-[(4-([2-(2-furyl)-5-methyl-1,3-oxazol-4-yl]methoxy}-3-methoxybenzyl)oxy]-1-phenyl-1H-pyrazol-4-yl}-2-propen-1-ol] yielded a melting point of 120 to 121 °C. As to `COc1cc(COc2nn(-c3ccccc3)cc2/C=C/C=O)ccc1OCc1nc(-c2ccco2)oc1C` [Example 109, (2E)-3-{3-[(4-{[2-(2-furyl)-5-methyl-1,3-oxazol-4-yl]methoxy}-3-methoxybenzyl)oxy]-1-phenyl-1H-pyrazol-4-yl}-2-propenaldehyde], the melting point lay in the range of 134 to 135 °C. Under `C=CC(c1cn(-c2ccccc2)nc1OCc1ccc(OCc2nc(-c3ccco3)oc2C)c(OC)c1)n1cncn1` (stereo not drawn) [Example 110, 1-(1-{3-[(4-{[2-(2-furyl)-5-methyl-1,3-oxazol-4-yl]methoxy}-3-methoxybenzyl)oxy]-1-phenyl-1H-pyrazol-4-yl}-2-propenyl)-1H-1,2,4-triazole] stands 115 to 116 °C. Under `COc1cc(COc2nn(-c3ccccc3)cc2/C=C/c2cscn2)ccc1OCc1nc(-c2ccco2)oc1C` [Example 111 (E form), 2-(2-furyl)-4-({2-methoxy-4-[({1-phenyl-4-[(E)-2-(1,3-thiazol-4-yl)ethenyl]-1H-pyrazol-3-yl}oxy)methyl]phenoxy)methyl)-5-methyl-1,3-oxazole] stands 136 to 137 °C; under `COc1cc(COc2nn(-c3ccccc3)cc2/C=C\c2cscn2)ccc1OCc1nc(-c2ccco2)oc1C` [Example 111 (Z form), 2-(2-furyl)-4-({2-methoxy-4-[({1-phenyl-4-[(Z)-2-(1,3-thiazol-4-yl)ethenyl]-1H-pyrazol-3-yl}oxy)methyl]phenoxy}methyl)-5-methyl-1,3-oxazole], 137 to 138 °C; under `COc1cc(COc2nn(-c3ccccc3)cc2/C=C/c2ccccn2)ccc1OCc1nc(-c2ccco2)oc1C` [Example 113, 2-((E)-2-{3-[(4-{[2-(2-furyl)-5-methyl-1,3-oxazol-4-yl]methoxy}-3-methoxybenzyl)oxy]-1-phenyl-1H-pyrazol-4-yl}ethenyl)pyridine], 135 to 136 °C. In the case of `COc1cc(COc2nn(-c3ccccc3)cc2/C=C/c2cnco2)ccc1OCc1nc(-c2ccco2)oc1C` [Example 114, 2-(2-furyl)-4-({2-methoxy-4-[({4-[(E)-2-(1,3-oxazol-5-yl)ethenyl]-1-phenyl-1H-pyrazol-3-yl}oxy)methyl]phenoxy}methyl)-5-methyl-1,3-oxazole] it was 137 to 138 °C; in that of `CCCc1nnc(/C=C/c2cn(-c3ccccc3)nc2OCc2ccc(OCc3nc(-c4ccco4)oc3C)c(OC)c2)o1` [Example 115, 2-((E)-2-{3-[(4-{[2-(2-furyl)-5-methyl-1,3-oxazol-4-yl]methoxy}-3-methoxybenzyl)oxy]-1-phenyl-1H-pyrazol-4-yl}ethenyl)-5-propyl-1,3,4-oxadiazole], 172 to 173 °C. `COc1cc(COc2nn(-c3ccccc3)cc2/C=C/c2nnco2)ccc1OCc1nc(-c2ccco2)oc1C` [Example 118, 2-((E)-2-{3-[(4-{[2-(2-furyl)-5-methyl-1,3-oxazol-4-yl]methoxy}-3-methoxybenzyl)oxy]-1-phenyl-1H-pyrazol-4-yl}ethenyl)-1,3,4-oxadiazole] came in with a melting point of 162 to 163 °C. As to `COc1cc(COc2nn(-c3ccccc3)cc2CCc2cscn2)ccc1OCc1nc(-c2ccco2)oc1C` [Example 119, 2-(2-furyl)-4-({2-methoxy-4-[({1-phenyl-4-[2-(1,3-thiazol-4-yl)ethyl]-1H-pyrazol-3-yl}oxy)methyl]phenoxy}methyl)-5-methyl-1,3-oxazole], the melting point fell in the range of 127 to 128 °C. In the case of `CCCc1nnc(Cc2cn(-c3ccccc3)nc2OCc2ccc(OCc3nc(-c4ccco4)oc3C)c(OC)c2)o1` [Example 120, 2-({3-[(4-{[2-(2-furyl)-5-methyl-1,3-oxazol-4-yl]methoxy}-3-methoxybenzyl)oxy]-1-phenyl-1H-pyrazol-4-yl}methyl)-5-propyl-1,3,4-oxadiazole] it was 102 to 103 °C; in that of `COc1cc(COc2nn(-c3ccccc3)cc2CC2=NCCO2)ccc1OCc1nc(-c2ccco2)oc1C` [Example 121, 4-{[4-({[4-(4,5-dihydro-1,3-oxazol-2-ylmethyl)-1-phenyl-1H-pyrazol-3-yl]oxy}methyl)-2-methoxyphenoxy]methyl}-2-(2-furyl)-5-methyl-1,3-oxazole], 95 to 96 °C; in that of `COc1cc(COc2nn(-c3ccccc3)cc2Cn2cncn2)ccc1OCc1nc(-c2ccco2)oc1C` [Example 122, 1-({3-[(4-{[2-(2-furyl)-5-methyl-1,3-oxazol-4-yl]methoxy}-3-methoxybenzyl)oxy]-1-phenyl-1H-pyrazol-4-yl}methyl)-1H-1,2,4-triazole], 149 to 150 °C. Under `CCCc1nnc(CCc2cc(OCc3ccc(OCc4nc(-c5ccccc5)oc4C)c(OC)c3)nn2-c2ccccc2)o1` [Example 123, 2-{2-[3-({3-methoxy-4-[(5-methyl-2-phenyl-1,3-oxazol-4-yl)methoxy]benzyl}oxy)-1-phenyl-1H-pyrazol-5-yl]ethyl}-5-propyl-1,3,4-oxadiazole] stands 85 to 86 °C; under `CCCc1noc(/C=C/c2cn(-c3ccccc3)nc2OCc2ccc(OCc3nc(-c4ccco4)oc3C)c(OC)c2)n1` [Example 124, 5-((E)-2-{3-[(4-{[2-(2-furyl)-5-methyl-1,3-oxazol-4-yl]methoxy}-3-methoxybenzyl)oxy]-1-phenyl-1H-pyrazol-4-yl}ethenyl)-3-propyl-1,2,4-oxadiazole], 192 to 193 °C. In the case of `COc1cc(COc2nn(-c3ccccc3)cc2/C=C/c2nnc(C)o2)ccc1OCc1nc(-c2ccco2)oc1C` [Example 125, 2-((E)-2-{3-[(4-{[2-(2-furyl)-5-methyl-1,3-oxazol-4-yl]methoxy}-3-methoxybenzyl)oxy]-1-phenyl-1H-pyrazol-4-yl}ethenyl)-5-methyl-1,3,4-oxadiazole] it was 186 to 187 °C; in that of `CCc1nnc(/C=C/c2cn(-c3ccccc3)nc2OCc2ccc(OCc3nc(-c4ccco4)oc3C)c(OC)c2)o1` [Example 126, 2-ethyl-5-((E)-2-{3-[(4-{[2-(2-furyl)-5-methyl-1,3-oxazol-4-yl]methoxy}-3-methoxybenzyl)oxy]-1-phenyl-1H-pyrazol-4-yl}ethenyl)-1,3,4-oxadiazole], 183 to 184 °C.
